Experimental data: patent US20060154903A1, “Betulinol derivatives as anti-cancer agents” (priority 2004, published 2006)
Read-outs that look alike come from different tables or passages of the source.

Columns and labels:
[1] = system: human prostate cancer DU-145 cell line; test: MTT cytotoxicity assay, DU-145; type: cell-based; settings: for Percent Killed: Prostate (1); for Growth Inhibition %: 1 × 10^−5
Experimental: (§1) The human prostate cancer LNCaP, PC-3, and DU-145 cell lines, as well as human fibroblast cell line, were obtained from the American Type Culture Collection (“ATCC”) and maintained in RPMI-1640, F-12k, and MEM mediums, respectively, supplemented with 10% FBS. Cell lines were maintained at 37° C. under a humidified atmosphere and 5% CO2 for testing of the cytotoxicity of betulinol derivatives. The cytotoxicity assay was performed using MTT assay according to the instructions of ATCC protocol. Cells 1×10^5 in 0.1 ml/well were plated in 96-well culture plates (Costar) and incubated with a different dilution of betulinol derivatives for 24, 48, and 72 hours. Ten μl of 3-[4,5-dimethylthiazol-2-yl]-2,5 diphenyl tetrazolium bromide was added into each well at the end of each incubation period. The reaction product, formazan, was dissolved in the detergent, and the absorbance was read at 540 nm (Ref).

[2] = system: human prostate cancer LNCaP cell line; test: MTT cytotoxicity assay, LNCaP; type: cell-based; settings: for Percent Killed / inhibition at 100 µM / inhibition at 10 µM / inhibition at 1 µM / Growth Inhibition %: LNCaP; for Percent Killed: Prostate (1); for inhibition at 100 µM / inhibition at 10 µM / inhibition at 1 µM: Homo sapiens, read-out: Growth Inhibition %; for inhibition at 1 µM: 1 × 10^−6 M; for Growth Inhibition %: 1 × 10^−5 (Table 12)
Experimental: as §1
However, these compounds were not tested on prostate cancer LNCaP cell line by NCI. […] The anti-tumor activity of the compounds was determined at three doses and the total growth inhibition kill effect as pertinent of the control at 24, 48, and 72 hours as presented in Table 11.

[3] = system: human prostate cancer PC-3 cell line; test: MTT cytotoxicity assay, PC-3; type: cell-based; settings: for Percent Killed: Prostate (1); for Growth Inhibition %: 1 × 10^−5
Experimental: as §1

[4] = system: human fibroblast cell line; type: cell-based; settings: Fibroblasts; for Percent Killed: Prostate (1); for Growth Inhibition %: 1 × 10^−5
Experimental: as §1

[5] = Solubility in DMSO diluted with culture medium (GC); settings: for State of solution: 0.5 mg/mL (1 × 10^−3 mol/L), culture medium
Experimental: The residue was dissolved in chloroform analyzed on GC.
Ethyl ether was then evaporated. […] Concentration of drug in the above solutions was analyzed by GC and determined from the standard solubility curve.

Bladder cancer cells = settings: 1 × 10^−4 M; Bladder (1), cell line not given
LNCaP = test: Anchorage-independence growth assay in soft agar, LNCaP; type: cell-based; settings: Homo sapiens, 336 h, 1 × 10^−5 M, 14 days, read-out: Inhibition % on Anchorage-independent Growth
Experimental: (§2) Anchorage-independence growth assay was performed to determine the ability of cancer cells to form colonies in soft agar. 1.0×10^4 cancer cells were suspended in 2 ml of DMEM medium containing 0.33% agar in the presence or absence of betulinol derivatives. The compounds were overlaid on a 2 ml matrix made up of 0.6% agar. The cultures were incubated at 37° C. in a humidified environment under 5% CO2 for 14 days without medium change. The cultures were fixed in Comoy's fixative (acetic acid/100% ethanol 1:3 v/v) and the numbers of anchorage-independent, tridimentional colonies (≧40 μm diameter) formed were counted under 10× magnification (Katdare et al., Cancer Lett. 111:141-47 (1997), which is hereby incorporated by reference in its entirety).

LNCaP xenografts = type: in vivo, athymic mice
Experimental: All the animal studies were performed according to the guidelines and approval of the Institutional Animal Care and Use Committee and Research Animal Resource Center of Weill Medical College of Cornell University, New York. Twelve mice of 13 weeks of age were purchased from The National Cancer Institute (NCI) and were housed in a pathogen-free environment under controlled conditions of light and humidity and with free access to food and water. LNCaP cells were grown in RPMI-1640 with 10% FBS until 80-90% confluent. Cells were scraped into PBS and collected by centrifugation. The LNCaP cell pellets were suspended in Matrigel (Ref) at 2.5×10^7 cells/ml. Mice were injected subcutaneously (“s.c.”) with 200 μl (5×10^6 cells) of the cell suspension at one site on the flank. Visible tumor grew after 7-8 days following implantation and mice were divided into three groups of four mice each.
Mice received s.c. injection daily for ten days. […] Tumors were measured daily with calipers, and tumor volumes were calculated by the formula: π/6(1×w×h). Animals were also weighed daily and monitored for general health status and vital signs of possible toxicity due to treatment. At the end of the treatment period, the animals were sacrificed and tumors were excised, weighed and prepared for immunohistochemical and histological studies. […]

PC-3 = test: Anchorage-independence growth assay in soft agar, PC-3; type: cell-based; settings: Homo sapiens, 336 h, 1 × 10^−5 M, 14 days, read-out: Inhibition % on Anchorage-independent Growth
Experimental: as §2

184B5/HER = test: In vitro cytotoxicity, Breast (1), 184B5/HER; type: cell-based; settings: 1 × 10^−4 M
DU-145 = test: Anchorage-independence growth assay in soft agar, DU-145; type: cell-based; settings: Homo sapiens, 336 h, 1 × 10^−5 M, 14 days, read-out: Inhibition % on Anchorage-independent Growth
Experimental: as §2

[6] = Solubilization in PBS containing human γ-globulin, human albumin and ethanol; settings: for Observation: 1 × 10^−3 mol/L
Description: Human γ-Globulin and human albumin are two major biocompatible components in human serum.

C=C(C)C1CCC2(C(=O)O)CC[C@]3(C)[C@H](CC[C@@H]4[C@@]5(C)CCC(=O)C(C)(C)[C@@H]5CC[C@]43C)C12 (some centres unmarked) [Compound 4, Betulonic Acid]
Percent Killed ([1]; 1 × 10^−4 M): 54% | Percent Killed ([1]; 1 × 10^−5 M): 51% | Growth Inhibition % ([1]; 24 hours): 33% | Growth Inhibition % ([1]; 48 hours): 51% | Percent Killed ([2]; 1 × 10^−4 M): 81% | Percent Killed ([2]; 1 × 10^−5 M): 75% | inhibition at 100 µM ([2]; 24 h, 24 hours, 1 × 10^−4 M): 70.4 ± 19.1% | inhibition at 10 µM ([2]; 24 h, 24 hours, 1 × 10^−5 M): 24.2 ± 10.8% | inhibition at 1 µM ([2]; 24 h, 24 hours): 9.2 ± 6.1% | inhibition at 100 µM ([2]; 48 h, 48 hours, 1 × 10^−4 M): 81 ± 12.6% | inhibition at 10 µM ([2]; 48 h, 48 hours, 1 × 10^−5 M): 69.5 ± 20.2% | inhibition at 1 µM ([2]; 48 h, 48 hours): 27.8 ± 11.4% | inhibition at 100 µM ([2]; 72 h, 72 hours, 1 × 10^−4 M): 80.8 ± 15.8% | inhibition at 10 µM ([2]; 72 h, 72 hours, 1 × 10^−5 M): 88.4 ± 7.96% | inhibition at 1 µM ([2]; 72 h, 72 hours): 45 ± 12.3% | Growth Inhibition % ([2]; 24 hours): 38 ± 8% | Growth Inhibition % ([2]; 48 hours): 75 ± 9% | kill effects on LNCaP cell growth compared to the other compounds ([2]; MTT assay, compounds 1-8): highest kill effects | Percent Killed ([3]; 1 × 10^−4 M): 54% | Percent Killed ([3]; 1 × 10^−5 M): 41% | Growth Inhibition % ([3]; 24 hours): 9.7% | Growth Inhibition % ([3]; 48 hours): 41.1% | Percent Killed ([4]; 1 × 10^−4 M): No effect | Percent Killed ([4]; 1 × 10^−5 M): No effect | Growth Inhibition % ([4]; 24 hours): 0% | Growth Inhibition % ([4]; 48 hours): 0% | State of solution ([5]; 3% DMSO in total Vol.): Suspension | State of solution ([5]; 9% DMSO in total Vol.): Suspension | State of solution ([5]; 14% DMSO in total Vol.): Cloudy | State of solution ([5]; 20% DMSO in total Vol.): clear solution | State of solution ([5]; 20% DMSO in total Vol., listed as BA): Clear | amount dissolved out of 3 mg ([5]; 1% DMSO in culture medium containing 10% FBS, nominal 1×10^−3 mol/L): 0.4 mg | Percent Killed (Bladder cancer cells): 37% | inhibition at 10 µM (LNCaP): 0% | health status and vital signs of the mice during treatment (LNCaP xenografts; mouse, in vivo): no adverse effects on vital signs | increase of tumor volume on day 10 compared to day 1 (LNCaP xenografts; s.c. daily for ten days, 20 mg/kg, LNCaP xenografts in athymic mice): 20.3% | inhibition at 10 µM (PC-3): 26.1% | Percent Killed (184B5/HER): Toxic | inhibition at 10 µM (DU-145): 12.5% | Observation ([6]; ethanol 220 μL, γ-globulin PBS 1.48 mL, albumin PBS 0.49 mL): Cloudy | Observation ([6]; ethanol 280 μL, γ-globulin PBS 0 mL, albumin PBS 2.50 mL): Complete | Observation ([6]; ethanol 280 μL, γ-globulin PBS 2.50 mL, albumin PBS 0 mL): Suspension | Observation ([6]; ethanol 308 μL, γ-globulin PBS 0.69 mL, albumin PBS 2.07 mL): Almost Clear | Observation ([6]; ethanol 330 μL, γ-globulin PBS 1.48 mL, albumin PBS 1.48 mL): Little Cloudy | Observation ([6]; ethanol 352 μL, γ-globulin PBS 0.32 mL, albumin PBS 2.85 mL): Clear | concentration completely dissolved ([6]; PBS containing 4% human albumin, final concentration of 10% ethanol): 1×10^−3 mol per liter | concentration completely dissolved ([6]; human albumin PBS solution with 10% ethanol): 0.001 mol/L
